Measurements from patent US20160159778A1, “NOVEL UREIDO DERIVATIVES OF NAPHTHALENESULFONIC ACIDS” (NeED PHARMACEUTICALS S.r.l., priority 2013, published 2016).

Key:
Type in all cases: cell-based
[1] = tested on: HIV-1 Bal (strain using CCR5); experiment: HIV-1 Bal replication in PHA-activated peripheral blood mononuclear cells (p24 in supernatant); settings: PBMC
Description: (§1) The compound (VII) has been tested for its ability to modulate the viral replication of HIV-1, both of a strain using CXCR4 (IIIB) and a strain using CCR5 (Bal) as co-receptor, in addition to the primary receptor CD4.
(§2) For the in-vitro infections primary cells have been used, specifically peripheral blood mononuclear cells from healthy donors pre-activated for 48 hours through a mitogenic stimulus (phytohemagglutinin) to allow for the infection by HIV-1. The cells have been incubated with IIIB and Bal viruses in absence or in presence of scalar concentrations of compound (VII) for 30 minutes at 37° C., then they have been washed to remove the excess virus, plated in triplicate in culture microplates and the compound VII has been re-added to the wells, in the test concentrations. The control culture has been set up in presence of dimethylsulfoxyde (DMSO), the compound in which the compound VII has been dissolved, in order to more correctly evaluate a net effect of the compound. The viral replication has been evaluated by measuring the structural protein of HIV-1 p24 (expressed in ng/ml) by an immune-enzymatic test carried out on the culture supernatants harvested on days 4 and 7 post-infection.
(§3) The graphs show the mean values of the culture triplicate with the standard deviation on post-infection days 4 and 7.

[2] = tested on: fusion mediated by gp120 of HIV-1 using CXCR4; experiment: gp120-mediated cell-cell fusion assay, target cells with CD4 and CXCR4 (colorimetric, OD 570 nm)
Text: (§4) In order to evaluate on which step of the complex HIV-1 replication cycle the compound VII acts according to the present invention, a sophisticated method, schematized in FIG. 2, has been used, specifically only focusing on the entry step of HIV-1 in target cells.
(§5) Briefly, a colorimetric reaction is developed when two populations of properly engineered cells meet and in particular a donor, carrying on the surface the glycoprotein of HIV-1 gp120 and a target, together with the primary receptor CD4 and with one of the co-receptors, CXCR4 or CCR5. In this case there is a fusion of the cells and the polymerase T7 can pass from the donor cell to the target one in which it triggers the transcription of beta-galactosidase with subsequent protein translation. Thus the latter is able to perform its enzymatic action in the presence of the convenient substrate (CPRG, chlorophenol red-3-D galactopyranoside) developing a colorimetric reaction measured by detection of optical density (OD) at 570 nm.
(§6) In the first one, the target cells are mouse fibroblasts (3T3 in FIG. 3 A/B), on the contrary in the second one the target cells are human epithelial cells (HeLa, in FIG. 3 C/D). The graphs show the mean values of the culture triplicate with the standard deviation.

[3] = tested on: HIV-1 IIIB (strain using CXCR4); experiment: HIV-1 IIIB replication in PHA-activated peripheral blood mononuclear cells (p24 in supernatant); settings: for inhibition of replication of HIV-1 IIIB: PBMC
Description: as §1, §2, §3

[4] = tested on: fusion mediated by gp120 of HIV-1 using CCR5; experiment: gp120-mediated cell-cell fusion assay, target cells with CD4 and CCR5 (colorimetric, OD 570 nm); settings: target cells 3T3 mouse fibroblasts and HeLa human epithelial cells (FIG. 3 B/D)
Text: as §4, §5, §6

[5] = 0.1 μM, p24 on days 4 and 7 post-infection (FIG. 1C/D)
[6] = 1 μM, p24 on days 4 and 7 post-infection (FIG. 1C/D)
[7] = 30, 10 and 3 μM, p24 on days 4 and 7 post-infection (FIG. 1A/B)

Compound: Cn1cc(NC(=O)c2cc3cc(NC(=O)Nc4ccc5c(c4)cc(C(=O)Nc4cc(C(=O)Nc6ccc7cc(S(=O)(=O)O)cc(S(=O)(=O)O)c7c6)n(C)c4)n5C)ccc3n2C)cc1C(=O)Nc1ccc2cc(S(=O)(=O)O)cc(S(=O)(=O)O)c2c1 [compound (VII)]
- inhibition of replication of HIV-1 Bal [1, 5]: not more effective
- inhibition of replication of HIV-1 Bal [1, 6]: almost totally lost the inhibitory ability
- inhibition of replication of HIV-1 Bal [1, 7]: completely inhibited
- relative potency in fusion inhibition, HIV-1 using CXCR4 versus HIV-1 using CCR5 ([2]; comparison of CXCR4 (the latter) with CCR5): more potent against the latter
- inhibition of fusion mediated by gp120 of HIV-1 using CXCR4 ([2]; target cells 3T3 mouse fibroblasts and HeLa human epithelial cells (FIG. 3 A/C)): able to inhibit, in a way depending on the concentration
- inhibition of replication of HIV-1 IIIB [3, 5]: not more effective
- inhibition of replication of HIV-1 IIIB [3, 6]: inhibited completely
- inhibition of replication of HIV-1 IIIB [3, 7]: completely inhibited
- relative effectiveness in replication inhibition, CXCR4-using versus CCR5-using virus ([3]; comparison of IIIB with Bal at 1 μM): higher effectiveness of the compound against viruses using the chemokine receptor CXCR4
- inhibition of fusion mediated by gp120 of HIV-1 using CCR5 [4]: able to inhibit, in a way depending on the concentration
